Source: ChEMBL document CHEMBL5543113, “Amphiphilic α-Peptoid-deoxynojirimycin Conjugate-based Multivalent Glycosidase Inhibitor for Hypoglycemic Effect and Fluorescence Imaging” (J Med Chem, 2024)

Experiments:
[1] = Stability of compound assessed as fluorescence intensity at 2 x 10^-4 M administered as Nile red complex at pH 1.0 to 7.0 by fluorescence spectra analysis 9Rvb = 3548); assay type: physicochemical; conditions: pH 1, 200 µM; dose 2 10^-4M
[2] = Inhibition of C57BL/6J mouse Alpha-glucosidase incubated for 10 mins by Lineweaver-Burk plot analysis
Oryza sativa = experiment: Potency index, ratio of miglitol Ki to test compound Ki for inhibition of rice Alpha-glucosidase incubated for 10 mins by Lineweaver-Burk plot analysis
Mus musculus [3] = experiment: Hypoglycemic activity in KKAy diabetic mouse model assessed as molar decrease in PBG level at 1.6 mg/kg, po co-administered with maltose and measured after 30 mins by glucometer relative to control; assay type: functional; design: scale not given: the % may be the effect or the level left; conditions: 0.5 h
[4] = Self assembly property of the compound in water assessed as mean diameter at 1 x 10^-4 M by dynamic light scattering spectrometric analysis; assay type: physicochemical; conditions: buffer, 100 µM; dose 1 10^-4M
[5] = Drug uptake in C57/6J mouse liver assessed as increase in fluorescence at 5 x 10^-5M, po administered as Nile red complex and measured after 4 hrs by fluorescence imaging analysis; assay type: ADME, organism-based; conditions: in vivo, dose 5 10^-5M
Mus musculus [6] = experiment: Hypoglycemic activity in C57BL/6J mouse assessed as reduction in PBG level measured per DNJ unit at 0.8 mg/kg, po co-administered with maltose and measured at 15 to 30 mins by glucometer relative to control; assay type: functional; design: scale not given: the % may be the effect or the level left; conditions: time 15-30 min
Mus musculus [7] = experiment: Hypoglycemic activity in C57BL/6J mouse assessed as blood glucose level at 0.4 mg/kg, po co-administered with maltose and measured after 15 mins by glucometer (380.8 +/- 20.6 mg/dl); assay type: functional; conditions: 0.25 h
[8] = Self assembly property of the compound assessed as diameter at 2 x 10^-4 mol/L by dynamic light scattering spectrometric analysis; assay type: physicochemical; conditions: 200 µM; dose 2 10^-4mol/L
Mus musculus [9] = experiment: Binding affinity to mouse alpha-glucosidase assessed as DNJ fluorescence intensity at 2 x 10^-4 M administered as Nile red complex in presence of DNJ by fluorescence spectra analysis (reference value: 1627); conditions: dose 2.0 10^-4M
Mus musculus [10] = experiment: Hypoglycemic activity in KKAy diabetic mouse model assessed as decrease in PBG level at 1.6 mg/kg, po co-administered with maltose and measured after 60 mins by glucometer relative to control; assay type: functional; design: scale not given: the % may be the effect or the level left; conditions: 1 h
Mus musculus [11] = experiment: Hypoglycemic activity in KKAy diabetic mouse model assessed as decrease in PBG level at 1.6 mg/kg, po co-administered with maltose and measured after 120 mins by glucometer relative to control; assay type: functional; design: scale not given: the % may be the effect or the level left; conditions: 2 h
[12] = Drug uptake in C57/6J mouse lung assessed as increase in fluorescence at 5 x 10^-5M, po administered as Nile red complex and measured after 4 hrs by fluorescence imaging analysis; assay type: ADME, organism-based; conditions: in vivo, dose 5 10^-5M
Mus musculus [13] = experiment: Hypoglycemic activity in C57BL/6J mouse assessed as reduction in PBG level measured per DNJ unit at 1.6 mg/kg, po co-administered with maltose and measured at 15 to 30 mins by glucometer relative to control; assay type: functional; design: scale not given: the % may be the effect or the level left; conditions: time 15-30 min
Mus musculus [14] = experiment: Hypoglycemic activity in C57BL/6J mouse assessed as decrease in PBG level at 1.6 mg/kg, po co-administered with maltose and measured after 15 mins by glucometer relative to control; assay type: functional; design: scale not given: the % may be the effect or the level left; conditions: 0.25 h
[15] = Toxicity in C57BL/6J mouse assessed as effect on heart morphology at 1.6 mg/kg, po co-administered with maltose for 7 days by Hematoxylin and eosin staining based analysis; assay type: organism-based; conditions: in vivo, 168 h, time 7 day
[16] = Inhibition of rice Alpha-glucosidase incubated for 10 mins by Lineweaver-Burk plot analysis; design: species or system Oryza sativa
[17] = Binding affinity to mouse alpha-glucosidase assessed as DNJ binding constant at 2 x 10^-4 M administered as Nile red complex in presence of DNJ by fluorescence spectra analysis
[18] = Stability of compound in simulated gastric fluid assessed as fluorescence intensity at 2 x 10^-4 M administered as Nile red complex by fluorescence spectra analysis (reference value: 3548); assay type: ADME; conditions: simulated gi fluid, 200 µM; dose 2 10^-4M
Mus musculus [19] = experiment: Relative hypoglycemic rate in C57BL/6J mouse assessed as reduction in PBG level by measuring fold change at 1.6 mg/kg, po co-administered with maltose and measured after 30 mins by glucometer relative to miglitol; assay type: functional; conditions: 0.5 h
[20] = Binding affinity to mouse alpha-glucosidase assessed as binding constant administered as Nile red complex by fluorescence spectra analysis
Mus musculus [21] = experiment: Hypoglycemic activity in C57BL/6J mouse assessed as decrease in PBG level at 0.4 mg/kg, po co-administered with maltose and measured after 15 mins by glucometer relative to control; assay type: functional; design: scale not given: the % may be the effect or the level left; conditions: 0.25 h
Mus musculus [22] = experiment: Hypoglycemic activity in C57BL/6J mouse assessed as blood glucose level at 1.6 mg/kg, po co-administered with maltose and measured after 30 mins by glucometer (380.8 +/- 20.6 mg/dL); assay type: functional; conditions: 0.5 h
[23] = Cytotoxicity against human GES1 cells assessed as viable cells at 125 uM incubated for 44 hrs by MTT assay relative to control; assay type: toxicity, cell-based; conditions: read-out: Activity
Mus musculus [24] = experiment: Hypoglycemic activity in C57BL/6J mouse assessed as blood glucose level at 0.4 mg/kg, po co-administered with maltose and measured after 30 mins by glucometer (380.8 +/- 20.6 mg/dL); assay type: functional; conditions: 0.5 h
Mus musculus [25] = experiment: Hypoglycemic activity in C57BL/6J mouse assessed as decrease in PBG level at 0.8 mg/kg, po co-administered with maltose and measured after 15 mins by glucometer relative to control; assay type: functional; design: scale not given: the % may be the effect or the level left; conditions: 0.25 h
Aspergillus niger = experiment: Potency index, ratio of 1-deoxynojirimycin Ki to test compound Ki for inhibition of Aspergillus niger Alpha-glucosidase incubated for 10 mins by Lineweaver-Burk plot analysis
[26] = Toxicity in C57BL/6J mouse assessed as effect on lung morphology at 1.6 mg/kg, po co-administered with maltose for 7 days by Hematoxylin and eosin staining based analysis; assay type: organism-based; conditions: in vivo, 168 h, time 7 day
Mus musculus [27] = experiment: Relative hypoglycemic rate in KKAy diabetic mouse model assessed as molar reduction in PBG level by measuring fold change at 1.6 mg/kg, po co-administered with maltose and measured after 30 mins by glucometer relative to miglitol; assay type: functional; conditions: 0.5 h
Mus musculus [28] = experiment: Relative hypoglycemic rate in KKAy diabetic mouse model assessed as reduction in PBG level by measuring fold change at 1.6 mg/kg, po co-administered with maltose and measured after 30 mins by glucometer relative to miglitol; assay type: functional; conditions: 0.5 h
[29] = Toxicity in C57BL/6J mouse assessed as effect on spleen morphology at 1.6 mg/kg, po co-administered with maltose for 7 days by Hematoxylin and eosin staining based analysis; assay type: organism-based; conditions: in vivo, 168 h, time 7 day
[30] = Self assembly property of compound assessed as Nilered-compound complex formation by measuring critical micellar concentration at 638 nm by Nile red dye based fluorescence analysis; assay type: physicochemical
[31] = Self assembly property of compound in citric acid-phosphate buffer at pH 2 to 7 at 1 x 10^-4 M assessed as diameter by dynamic light scattering spectrometric analysis; assay type: physicochemical; conditions: pH 2, 100 µM, dose 1 10^-4M
[32] = Drug uptake in C57/6J mouse small intestine assessed as increase in fluorescence at 5 x 10^-5M, po administered as Nile red complex and measured upto 2 hrs by fluorescence imaging analysis; assay type: ADME, organism-based; conditions: in vivo, dose 5 10^-5M

CCCCCCCCCCCCCCCCCCNC(=O)CN(Cc1cn(CCCCCCN2C[C@H](O)[C@@H](O)[C@H](O)[C@H]2CO)nn1)C(=O)CN(Cc1cn(CCCCCCN2C[C@H](O)[C@@H](O)[C@H](O)[C@H]2CO)nn1)C(=O)CN(Cc1cn(CCCCCCN2C[C@H](O)[C@@H](O)[C@H](O)[C@H]2CO)nn1)C(=O)CN(Cc1cn(CCCCCCN2C[C@H](O)[C@@H](O)[C@H](O)[C@H]2CO)nn1)C(C)=O
Flu intensity [1]: 1001
Ki [2]: 2.7 µM
Ratio Ki (Oryza sativa): 6.7
Activity (Mus musculus [3]): 7.6%
Activity [4]: 283 nm
Drug uptake [5]: Not Active
Activity (Mus musculus [6]): 14.2%
Activity (Mus musculus [7]): 347.8 mg/dL
Activity [8]: 285 nm
Flu intensity (Mus musculus [9]): 2300
Activity (Mus musculus [10]): 22.1%
Activity (Mus musculus [11]): 19.9%
Drug uptake [12]: Not Active
Activity (Mus musculus [13]): 11.5%
Activity (Mus musculus [14]): 18.8%
Activity [15]: Non-Toxic
Ki [16]: 0.027 µM
Ka [17]: 308 M⁻¹
Flu intensity [18]: 862
fold change (FC) (Mus musculus [19]): 1.8
Ka [20]: 5680 M⁻¹
Activity (Mus musculus [21]): 6.5%
Activity (Mus musculus [22]): 230.4 mg/dL
viability at 44 h, 125 µM [23]: > 80%
Activity (Mus musculus [24]): 309.9 mg/dL
Activity (Mus musculus [25]): 12.2%
Ratio Ki (Aspergillus niger): 21.2
Activity [26]: Non-Toxic
fold change (FC) (Mus musculus [27]): 6.9
fold change (FC) (Mus musculus [28]): 3
Activity [29]: Non-Toxic
CAC [30]: 8.31 10^-5M
Activity [31]: 138 nm
Drug uptake [32]: Active
